This note sets out measurements from article PMC5072426, “Inhibition of cathepsin B by caspase-3 inhibitors blocks programmed cell death in Arabidopsis” (Cell Death and Differentiation, 2016).

The test concerns the target T1, recombinant AtCathB3 (Arabidopsis cathepsin B3) (Arabidopsis thaliana, UniProt Q94K85).
T1 construct: gene CATHB3; 25-residue signal peptide removed; N-terminal cherrytag (11 kDa), C-terminal 6xHis; secreted from baculovirus-infected insect cells (Sf9/Hi-5); N-glycosylated
T1 sequence (Q94K85 26-359): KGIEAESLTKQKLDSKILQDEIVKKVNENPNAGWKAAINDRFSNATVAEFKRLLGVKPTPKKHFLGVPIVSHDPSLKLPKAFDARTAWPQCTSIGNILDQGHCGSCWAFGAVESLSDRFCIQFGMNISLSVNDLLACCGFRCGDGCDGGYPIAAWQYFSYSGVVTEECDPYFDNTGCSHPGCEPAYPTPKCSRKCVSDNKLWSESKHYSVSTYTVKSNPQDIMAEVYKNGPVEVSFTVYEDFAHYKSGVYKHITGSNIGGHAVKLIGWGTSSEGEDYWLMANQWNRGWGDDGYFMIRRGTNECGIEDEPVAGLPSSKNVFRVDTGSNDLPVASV
The test is described as follows: fluorogenic DEVDase assay, inhibitor pre-incubated […] min. It counts as biochemical.

Molecules are shown by their SMILES. Peptide text beside a SMILES is read from it.

`CCCNC(=O)[C@H]1O[C@@H]1C(=O)N[C@H](C(=O)N1CCC[C@H]1C(=O)O)[C@@H](C)CC` [CA-074]: the remaining activity at 1000 µM is 0%.

Take `CC(C)[C@H](NC(=O)[C@H](CCC(=O)O)NC(=O)[C@H](CC(=O)O)NC(=O)OCc1ccccc1)C(=O)N[C@H](C=O)CC(=O)O` [DEVD-CHO, Z-DEVD-CHO]: the remaining activity at 100 µM stood at 0.3%.

On to `CC(=O)N[C@@H](CC(C)C)C(=O)N[C@H](C(=O)N[C@H](C=O)CCCCN)C(C)C` [LVK-CHO, Ac-LVK-CHO] (Ac-Leu-Val-Lys-aldehyde), for which the remaining activity at 100 µM was 0%.

In the case of `CC(=O)N[C@@H](Cc1ccc(O)cc1)C(=O)N[C@H](C(=O)N[C@@H](C)C(=O)N[C@H](C=O)CC(=O)O)C(C)C` [YVAD-CHO, Ac-YVAD-CHO], the remaining activity at 100 µM was found to be 43.3 ± 0.6%.

In general, remaining activity refers to the activity still measured, relative to the control.
